# In article PMC12858467, “In vitro toxicokinetics and metabolic profiling of methoxycathinones and methylthiocathinones using human liver systems and hyphenated mass spectrometry” (Archives of Toxicology, 2025):
# Columns and labels:
# HepaRG cells = assay: Incubations using HepaRG cells; details: 25 µM parent, 24 h
# Protocol: Cell incubations were performed in a monolayer assay (Kroesen et al. [2025]) and in accordance with the manufacturer’s instructions.
# All incubations were performed in triplicate, with each well containing 0.5% (v/v) DMSO. Following incubation, 50 µL of the medium supernatant was transferred to a new reaction tube and precipitated with 30 µL of acetonitrile cooled to −20 °C, containing 2.5 µM trimipramine-d3 as an internal standard. […] The mixture was vortexed and centrifuged for 2 min at 18,407 × g. A volume of 70 µL of the supernatant was transferred into an autosampler vial and 5 µL was injected onto the LC–HRMS/MS system.
# HepaRG cells were thawed and resuspended in 13.5 mL (~ 740,000 cells/mL) thaw
# and seed medium at 37 °C. Thaw and seed medium consisted of Williams E medium,
# 100 U/mL penicillin, 100 µg/mL streptomycin, GlutaMAX, and HPRG670 supplement.
# Cells were handled under sterile conditions using a laminar flow bench class II (Thermo
# Scientific, TF, Schwerte, Germany). Aliquots of 100 µL cell suspension were seeded
# on collagen-coated 96-well plates (~ 74,000 cells/well). Evaporation was minimized by
# filling the outer wells with 100 µL thaw and seed medium. Cells were preincubated for
# 4 h in an incubator (Binder, Tuttlingen, Germany) at 37 °C, 95 % air humidity, and 5 %
# CO2. After preincubation, 50 µL of the thaw and seed medium was replaced with 50 µL
# solution of each cathinone (25 µM) in thaw and seed medium, followed by an
# incubation for 24 h at 37 °C, 95 % air humidity, and 5 % CO2 atmosphere.
# A Thermo Fisher ( TF, Dreieich, Germany) Dionex UltiMate 3000 RS pump consisting
# of a degasser, a quaternary pump, and an autosampler, coupled to a TF Q Exactive
# Plus system equipped with a heated electrospray ionization (HESI)-II source were
# used. A mass calibration was done according to the manufacturer's recommendations
# using external mass calibration prior to analysis. Gradient elution was performed on a
# TF Accucore PhenylHexyl column (100 mm x 2.1 mm, 2.6 μm) with a 2 mM aqueous
# ammonium formate solution containing 0.1 % (v/v) formic acid (pH 3, eluent A) and 2
# mM ammonium formate solution in acetonitrile/methanol (50:50, v/v) containing 0.1 %
# (v/v) formic acid, and 1 % (v/v) water (eluent B). The gradient was stepped as follows:
# hold 99 % A. Initial flow rate from 0–9.5 min was 500 μL/min and final flow rate was
# 800 μL/min from 9.5–11.5 min. Mass spectrometry was performed using full scan data
# and a subsequent data-dependent acquisition (DDA) with priority to mass-to-charge
# ratios (m/z) of parent compounds and their expected metabolites. The inclusion list
# contained m/z values of likely formed metabolites such as O- or S-desmethyl, hydroxy,
# and oxo reduction metabolites (phase I) as well as sulfates, glucuronides (phase II),
# and combinations thereof.
# TF Xcalibur Qual Browser software […]
# [1] = system: pooled human liver S9 fraction (pHLS9); assay: Incubations using pooled human liver S9 fraction; details: 25 µM parent, 60 and 360 min
# Protocol: In short, 25 μg/mL alamethicin (UGT reaction mix B), pHLS9 (2 mg microsomal protein/mL), 2.5 mM isocitrate, 0.8 U/mL isocitrate dehydrogenase, 100 U/mL superoxide dismutase, 0.6 mM NADP^+, and 2.5 mM Mg^2+ were preincubated for 10 min at 37 °C. Then, 2.5 mM UDP-glucuronic acid (UGT reaction mix A), 40 µM PAPS, 1.2 mM SAM, 1 mM DTT, and 10 mM GSH were added. The reaction was started by adding the substrate (25 µM each, final), resulting in a final incubation volume of 150 µL. MDMA or quetiapine (25 µM and 250 µM final concentrations) was incubated as positive controls. […] Incubations were performed in triplicate and organic solvent in the incubation mixture was below 1% (Chauret et al. [1998]). After an incubation time of 60 and 360 min, aliquots (50 µL) were transferred to a new reaction tube. The reaction was stopped with 30 µL acetonitrile (−20 °C) containing 2.5 µM trimipramine-d3 as an internal standard. Samples were vortexed, stored at −20 °C for 30 min, and centrifuged for 2 min at 18,407 × g. 70 µL of the supernatant were transferred to autosampler vials and 5 µL was injected onto the LC–HRMS/MS system.
# CYP1A2 = target: T1, CYP1A2 (Homo sapiens, UniProt P05177); assay: Monooxygenases activity screening, CYP1A2; assay type: in vitro ADME; design: key: +, detected; -, not detected; details: substrate 4MeS-NE-BP 25 µM, 30 min, 37 °C; Table S3.4
# T1 construct: purchased Discovery Life Sciences (Huntsville, LA, USA); host or cells: baculovirus-infected insect cells (microsomes, Supersomes)
# T1 sequence (P05177 1-516): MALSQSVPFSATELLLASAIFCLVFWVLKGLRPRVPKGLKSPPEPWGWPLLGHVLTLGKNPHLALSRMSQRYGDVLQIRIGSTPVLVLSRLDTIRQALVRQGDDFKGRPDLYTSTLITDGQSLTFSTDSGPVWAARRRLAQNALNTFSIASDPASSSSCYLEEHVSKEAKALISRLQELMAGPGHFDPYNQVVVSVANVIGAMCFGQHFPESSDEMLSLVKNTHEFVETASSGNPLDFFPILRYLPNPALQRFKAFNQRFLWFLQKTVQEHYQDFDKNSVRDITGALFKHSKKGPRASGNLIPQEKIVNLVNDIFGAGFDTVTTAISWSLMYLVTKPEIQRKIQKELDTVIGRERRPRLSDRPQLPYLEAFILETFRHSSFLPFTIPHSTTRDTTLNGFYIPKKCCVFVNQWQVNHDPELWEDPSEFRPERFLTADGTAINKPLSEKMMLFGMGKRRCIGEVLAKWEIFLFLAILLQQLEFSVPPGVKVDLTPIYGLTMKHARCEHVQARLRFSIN
# Protocol: (§1) For incubations with CYP2A6 or CYP2C9, phosphate buffer was replaced with 90 mM Tris buffer, according to the manufacturer’s guideline. […] All incubations were done in duplicate and concentrations were fixed. Verapamil (25 µM) was incubated as a positive control.
# CYP2A6 = target: T2, CYP2A6 (Homo sapiens, UniProt P11509); assay: Monooxygenases activity screening, CYP2A6; assay type: in vitro ADME; design: key: +, detected; -, not detected; details: substrate 4MeS-NE-BP 25 µM, 30 min, 37 °C; Table S3.4
# T2 construct: purchased Discovery Life Sciences (Huntsville, LA, USA); host or cells: baculovirus-infected insect cells (microsomes, Supersomes)
# T2 sequence (P11509 1-494): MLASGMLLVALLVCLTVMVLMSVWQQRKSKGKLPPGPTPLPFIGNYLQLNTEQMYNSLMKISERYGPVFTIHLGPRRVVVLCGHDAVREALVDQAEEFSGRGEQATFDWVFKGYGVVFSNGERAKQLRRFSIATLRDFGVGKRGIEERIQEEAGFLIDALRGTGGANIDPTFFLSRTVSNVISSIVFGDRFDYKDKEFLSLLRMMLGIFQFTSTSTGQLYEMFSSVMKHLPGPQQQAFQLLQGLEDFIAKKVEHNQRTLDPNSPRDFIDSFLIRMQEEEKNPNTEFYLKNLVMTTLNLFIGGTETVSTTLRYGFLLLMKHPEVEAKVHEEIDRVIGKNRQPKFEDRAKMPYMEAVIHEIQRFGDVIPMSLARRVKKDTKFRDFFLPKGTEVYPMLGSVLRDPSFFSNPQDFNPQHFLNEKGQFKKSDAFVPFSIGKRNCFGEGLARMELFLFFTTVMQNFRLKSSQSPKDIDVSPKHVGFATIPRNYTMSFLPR
# Protocol: as §1
# CYP2B6 = target: T3, CYP2B6 (Homo sapiens, UniProt P20813); assay: Monooxygenases activity screening, CYP2B6; assay type: in vitro ADME; design: key: +, detected; -, not detected; details: substrate 4MeS-NE-BP 25 µM, 30 min, 37 °C; Table S3.4
# T3 construct: purchased Discovery Life Sciences (Huntsville, LA, USA); host or cells: baculovirus-infected insect cells (microsomes, Supersomes)
# T3 sequence (P20813 1-491): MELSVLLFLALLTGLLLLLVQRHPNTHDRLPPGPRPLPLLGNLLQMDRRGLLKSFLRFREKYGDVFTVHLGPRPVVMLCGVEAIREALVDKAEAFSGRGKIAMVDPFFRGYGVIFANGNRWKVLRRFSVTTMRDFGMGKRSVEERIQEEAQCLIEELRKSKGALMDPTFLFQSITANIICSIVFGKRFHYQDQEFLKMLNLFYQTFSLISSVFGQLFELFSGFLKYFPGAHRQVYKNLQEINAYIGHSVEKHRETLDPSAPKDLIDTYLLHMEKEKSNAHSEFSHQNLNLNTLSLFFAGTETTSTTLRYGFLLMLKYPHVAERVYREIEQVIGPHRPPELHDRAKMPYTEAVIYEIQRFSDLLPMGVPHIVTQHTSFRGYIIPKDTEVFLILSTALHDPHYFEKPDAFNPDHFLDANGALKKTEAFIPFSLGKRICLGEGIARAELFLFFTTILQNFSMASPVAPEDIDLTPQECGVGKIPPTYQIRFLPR
# Protocol: as §1
# CYP2C8 = target: T4, CYP2C8 (Homo sapiens, UniProt P10632); assay: Monooxygenases activity screening, CYP2C8; assay type: in vitro ADME; design: key: +, detected; -, not detected; details: substrate 4MeS-NE-BP 25 µM, 30 min, 37 °C; Table S3.4
# T4 construct: purchased Discovery Life Sciences (Huntsville, LA, USA); host or cells: baculovirus-infected insect cells (microsomes, Supersomes)
# T4 sequence (P10632 1-490): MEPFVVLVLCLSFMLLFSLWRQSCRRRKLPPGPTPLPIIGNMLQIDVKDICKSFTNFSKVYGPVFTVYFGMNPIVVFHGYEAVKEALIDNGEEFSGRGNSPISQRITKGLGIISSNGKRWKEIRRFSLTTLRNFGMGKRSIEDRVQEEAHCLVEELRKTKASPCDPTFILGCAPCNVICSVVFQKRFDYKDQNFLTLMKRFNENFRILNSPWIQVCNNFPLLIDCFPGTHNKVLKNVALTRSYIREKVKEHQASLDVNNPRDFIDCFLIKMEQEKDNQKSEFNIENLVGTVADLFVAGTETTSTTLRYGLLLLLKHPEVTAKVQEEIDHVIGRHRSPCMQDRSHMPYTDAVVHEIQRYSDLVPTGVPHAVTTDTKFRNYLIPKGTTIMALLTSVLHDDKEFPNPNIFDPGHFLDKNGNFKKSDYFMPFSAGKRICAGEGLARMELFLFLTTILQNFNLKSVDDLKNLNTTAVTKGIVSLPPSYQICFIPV
# Protocol: as §1
# CYP2C9 = target: T5, CYP2C9 (Homo sapiens, UniProt P11712); assay: Monooxygenases activity screening, CYP2C9; assay type: in vitro ADME; design: key: +, detected; -, not detected; details: substrate 4MeS-NE-BP 25 µM, 30 min, 37 °C; Table S3.4
# T5 construct: purchased Discovery Life Sciences (Huntsville, LA, USA); host or cells: baculovirus-infected insect cells (microsomes, Supersomes)
# T5 sequence (P11712 whole entry): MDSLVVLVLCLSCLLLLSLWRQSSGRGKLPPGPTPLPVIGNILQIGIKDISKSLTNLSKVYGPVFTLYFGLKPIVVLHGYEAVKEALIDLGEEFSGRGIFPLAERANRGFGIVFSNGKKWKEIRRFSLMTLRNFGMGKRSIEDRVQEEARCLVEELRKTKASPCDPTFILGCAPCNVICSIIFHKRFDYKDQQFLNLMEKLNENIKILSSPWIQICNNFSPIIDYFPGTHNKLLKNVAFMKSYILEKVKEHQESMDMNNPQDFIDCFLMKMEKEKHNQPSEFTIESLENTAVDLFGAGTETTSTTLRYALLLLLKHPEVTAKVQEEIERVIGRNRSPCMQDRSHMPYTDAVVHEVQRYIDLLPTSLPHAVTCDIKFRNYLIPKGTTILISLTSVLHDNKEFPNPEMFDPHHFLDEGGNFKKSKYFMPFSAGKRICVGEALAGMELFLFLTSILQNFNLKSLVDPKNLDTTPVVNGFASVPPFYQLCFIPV
# Protocol: as §1
# CYP2C19 = target: T6, CYP2C19 (Homo sapiens, UniProt P33261); assay: Monooxygenases activity screening, CYP2C19; assay type: in vitro ADME; design: key: +, detected; -, not detected; details: substrate 4MeS-NE-BP 25 µM, 30 min, 37 °C; Table S3.4
# T6 construct: purchased Discovery Life Sciences (Huntsville, LA, USA); host or cells: baculovirus-infected insect cells (microsomes, Supersomes)
# T6 sequence (P33261 whole entry): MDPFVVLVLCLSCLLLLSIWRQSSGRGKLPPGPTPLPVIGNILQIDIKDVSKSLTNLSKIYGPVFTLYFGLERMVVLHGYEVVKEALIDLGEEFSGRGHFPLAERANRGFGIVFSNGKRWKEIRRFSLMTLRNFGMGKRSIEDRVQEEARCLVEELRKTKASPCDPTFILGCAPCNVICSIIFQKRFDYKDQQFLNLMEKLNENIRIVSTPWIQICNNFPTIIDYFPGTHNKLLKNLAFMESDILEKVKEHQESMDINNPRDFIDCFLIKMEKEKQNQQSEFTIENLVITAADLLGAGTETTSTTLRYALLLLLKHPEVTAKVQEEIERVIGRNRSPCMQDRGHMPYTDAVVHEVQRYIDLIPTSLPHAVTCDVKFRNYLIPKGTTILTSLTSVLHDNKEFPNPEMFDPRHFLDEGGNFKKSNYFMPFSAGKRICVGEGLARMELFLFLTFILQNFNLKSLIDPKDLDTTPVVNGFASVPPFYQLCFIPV
# Protocol: as §1
# CYP2D6 = target: T7, CYP2D6 (Homo sapiens, UniProt P10635); assay: Monooxygenases activity screening, CYP2D6; assay type: in vitro ADME; design: key to one-step metabolite detected in CYP2D6 incubation: +, detected; -, not detected; details: substrate 4MeS-NE-BP 25 µM, 30 min, 37 °C; Table S3.4
# T7 construct: purchased Discovery Life Sciences (Huntsville, LA, USA); host or cells: baculovirus-infected insect cells (microsomes, Supersomes)
# T7 sequence (P10635 whole entry): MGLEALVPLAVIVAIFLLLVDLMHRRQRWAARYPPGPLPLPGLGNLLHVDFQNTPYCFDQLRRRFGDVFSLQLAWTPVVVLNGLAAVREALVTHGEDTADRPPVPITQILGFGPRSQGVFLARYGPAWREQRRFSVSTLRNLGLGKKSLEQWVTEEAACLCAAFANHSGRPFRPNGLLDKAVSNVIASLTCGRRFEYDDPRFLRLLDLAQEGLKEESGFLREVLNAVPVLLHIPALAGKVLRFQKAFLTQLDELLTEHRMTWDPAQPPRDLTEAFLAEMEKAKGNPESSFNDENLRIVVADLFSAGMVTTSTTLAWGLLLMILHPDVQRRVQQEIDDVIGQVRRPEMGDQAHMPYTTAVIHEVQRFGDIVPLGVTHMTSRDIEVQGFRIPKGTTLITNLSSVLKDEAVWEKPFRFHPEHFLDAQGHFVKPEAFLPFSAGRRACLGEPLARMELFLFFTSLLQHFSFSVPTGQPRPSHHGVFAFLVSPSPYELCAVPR
# Protocol: as §1
# CYP2E1 = target: T8, CYP2E1 (Homo sapiens, UniProt P05181); assay: Monooxygenases activity screening, CYP2E1; assay type: in vitro ADME; design: key: +, detected; -, not detected; details: substrate 4MeS-NE-BP 25 µM, 30 min, 37 °C; Table S3.4
# T8 construct: purchased Discovery Life Sciences (Huntsville, LA, USA); host or cells: baculovirus-infected insect cells (microsomes, Supersomes)
# T8 sequence (P05181 whole entry): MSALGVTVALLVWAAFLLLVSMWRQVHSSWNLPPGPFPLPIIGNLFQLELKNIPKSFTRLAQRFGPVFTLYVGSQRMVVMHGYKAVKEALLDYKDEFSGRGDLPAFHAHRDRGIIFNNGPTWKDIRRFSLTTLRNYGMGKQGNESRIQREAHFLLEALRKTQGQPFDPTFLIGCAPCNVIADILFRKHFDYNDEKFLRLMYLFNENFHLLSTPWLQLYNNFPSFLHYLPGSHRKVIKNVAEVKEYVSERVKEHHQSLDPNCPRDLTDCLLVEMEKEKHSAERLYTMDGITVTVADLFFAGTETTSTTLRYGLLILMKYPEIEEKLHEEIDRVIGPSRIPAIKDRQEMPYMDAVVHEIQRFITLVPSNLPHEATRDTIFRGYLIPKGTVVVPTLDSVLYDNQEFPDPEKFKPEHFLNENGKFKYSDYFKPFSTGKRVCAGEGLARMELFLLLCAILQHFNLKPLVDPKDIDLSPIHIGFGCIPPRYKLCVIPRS
# Protocol: as §1
# CYP3A4 = target: T9, CYP3A4 (Homo sapiens, UniProt P08684); assay: Monooxygenases activity screening, CYP3A4; assay type: in vitro ADME; design: key: +, detected; -, not detected; details: substrate 4MeS-NE-BP 25 µM, 30 min, 37 °C; Table S3.4
# T9 construct: purchased Discovery Life Sciences (Huntsville, LA, USA); host or cells: baculovirus-infected insect cells (microsomes, Supersomes)
# T9 sequence (P08684 whole entry): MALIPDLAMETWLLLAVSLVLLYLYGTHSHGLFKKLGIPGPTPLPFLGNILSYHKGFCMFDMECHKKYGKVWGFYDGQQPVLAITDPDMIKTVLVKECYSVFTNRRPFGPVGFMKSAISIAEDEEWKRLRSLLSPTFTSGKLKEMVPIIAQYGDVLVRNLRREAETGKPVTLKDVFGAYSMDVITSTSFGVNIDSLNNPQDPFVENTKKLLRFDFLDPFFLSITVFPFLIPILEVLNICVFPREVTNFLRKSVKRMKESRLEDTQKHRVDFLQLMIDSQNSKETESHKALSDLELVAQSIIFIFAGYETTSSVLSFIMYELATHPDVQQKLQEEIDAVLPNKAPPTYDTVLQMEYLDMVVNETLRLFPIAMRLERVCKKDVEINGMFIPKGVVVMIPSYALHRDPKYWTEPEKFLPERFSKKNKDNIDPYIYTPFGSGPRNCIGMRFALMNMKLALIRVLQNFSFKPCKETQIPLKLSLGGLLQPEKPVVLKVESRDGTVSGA
# Protocol: as §1
# CYP3A5 = target: T10, CYP3A5 (Homo sapiens, UniProt P20815); assay: Monooxygenases activity screening, CYP3A5; assay type: in vitro ADME; design: key: +, detected; -, not detected; details: substrate 4MeS-NE-BP 25 µM, 30 min, 37 °C; Table S3.4
# T10 construct: purchased Discovery Life Sciences (Huntsville, LA, USA); host or cells: baculovirus-infected insect cells (microsomes, Supersomes)
# T10 sequence (P20815 whole entry): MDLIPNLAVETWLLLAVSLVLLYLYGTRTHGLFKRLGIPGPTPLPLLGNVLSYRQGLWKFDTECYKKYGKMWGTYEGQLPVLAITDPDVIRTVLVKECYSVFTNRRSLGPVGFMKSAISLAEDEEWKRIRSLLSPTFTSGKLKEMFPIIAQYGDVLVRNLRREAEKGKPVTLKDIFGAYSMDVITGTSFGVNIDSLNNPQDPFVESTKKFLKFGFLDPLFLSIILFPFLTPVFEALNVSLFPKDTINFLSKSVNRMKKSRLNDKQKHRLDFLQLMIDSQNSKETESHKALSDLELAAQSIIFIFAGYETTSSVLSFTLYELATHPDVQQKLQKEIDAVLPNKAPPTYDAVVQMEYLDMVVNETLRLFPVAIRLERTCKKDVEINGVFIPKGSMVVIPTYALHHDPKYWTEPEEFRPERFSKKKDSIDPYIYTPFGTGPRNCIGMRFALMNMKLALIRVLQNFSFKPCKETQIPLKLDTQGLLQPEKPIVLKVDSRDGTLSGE
# Protocol: as §1
# [2] = target: T11, flavin-containing monooxygenase 3 (FMO3) (Homo sapiens, UniProt P31513); assay: Monooxygenases activity screening, FMO3; assay type: in vitro ADME; design: key: +, detected; -, not detected; details: substrate 4MeS-NE-BP 25 µM, 30 min, 37 °C; Table S3.4
# T11 construct: purchased Discovery Life Sciences (Huntsville, LA, USA); host or cells: baculovirus-infected insect cells (microsomes, Supersomes)
# T11 sequence (P31513 1-532): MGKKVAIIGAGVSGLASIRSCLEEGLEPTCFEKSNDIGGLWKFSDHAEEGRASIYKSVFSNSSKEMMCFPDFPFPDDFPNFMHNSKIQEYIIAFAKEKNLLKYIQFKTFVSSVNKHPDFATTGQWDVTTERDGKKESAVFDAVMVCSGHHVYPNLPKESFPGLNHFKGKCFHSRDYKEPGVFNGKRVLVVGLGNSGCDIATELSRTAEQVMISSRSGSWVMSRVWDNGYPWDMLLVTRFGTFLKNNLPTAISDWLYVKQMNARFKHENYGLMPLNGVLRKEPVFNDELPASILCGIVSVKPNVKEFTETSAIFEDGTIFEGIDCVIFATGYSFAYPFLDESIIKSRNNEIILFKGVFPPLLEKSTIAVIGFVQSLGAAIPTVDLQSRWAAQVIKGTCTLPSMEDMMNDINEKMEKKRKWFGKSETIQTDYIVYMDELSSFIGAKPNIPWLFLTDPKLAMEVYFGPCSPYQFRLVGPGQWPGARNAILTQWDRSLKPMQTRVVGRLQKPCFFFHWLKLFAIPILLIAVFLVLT
# Protocol: as §1
smiles,measurement,setting,value
CCCC(C(=O)c1ccc(OS(=O)(=O)O)cc1)N1CCCC1 (stereo not shown) [MO3.9],metabolite detection in HepaRG incubations,HepaRG cells,observed in HepaRG incubations
CCCC(C(=O)c1ccc(OC2OC(C(=O)O)C(O)C(O)C2O)cc1)N1CCCC1 (stereo not shown) [MO3.10],metabolite detection in HepaRG incubations,HepaRG cells,observed in HepaRG incubations
same,metabolite detection in pHLS9,[1],could not be detected
CCC(C(=O)c1ccc(SC)cc1)N(O)CC (stereo not shown) [MT1.4],one-step metabolite detected in CYP1A2 incubation,CYP1A2,+
same,one-step metabolite detected in CYP2A6 incubation,CYP2A6,-
same,one-step metabolite detected in CYP2B6 incubation,CYP2B6,-
same,one-step metabolite detected in CYP2C8 incubation,CYP2C8,-
same,one-step metabolite detected in CYP2C9 incubation,CYP2C9,-
same,one-step metabolite detected in CYP2C19 incubation,CYP2C19,-
same,one-step metabolite detected in CYP2D6 incubation,CYP2D6,+
same,one-step metabolite detected in CYP2E1 incubation,CYP2E1,-
same,one-step metabolite detected in CYP3A4 incubation,CYP3A4,+
same,one-step metabolite detected in CYP3A5 incubation,CYP3A5,+
same,one-step metabolite detected in FMO3 incubation,[2],+
same,metabolite detection in HepaRG incubations,HepaRG cells,only detected in HepaRG incubations
CCC(N)C(=O)c1ccc(SC)cc1 (stereo not shown) [MT2.5],metabolite detection in HepaRG incubations,HepaRG cells,only detected in HepaRG incubations
